Among the data in ChEMBL document CHEMBL5107983, “Adipocyte fatty acid binding protein 4 (FABP4) inhibitors. An update from 2017 to early 2022” (Eur J Med Chem, 2022) are IC50 values, retold here.

SMILES strings stand for the structures.

The target of test [1] is T1, Fatty acid-binding protein, adipocyte (Homo sapiens, UniProt P15090). The test is described as follows: Inhibition of FABP4 (unknown origin) incubated for 10 mins by fluorescence based analysis.
The target in test [2] is T1, Fatty acid-binding protein, adipocyte. As to the kind of experiment: Inhibition of human FABP4.
Test [3] has the same target. As to the kind of experiment: Displacement of 1,8-ANS from human recombinant FABP4 incubated for 4 mins by fluorescence based analysis.

T1 sequence (P15090 whole entry): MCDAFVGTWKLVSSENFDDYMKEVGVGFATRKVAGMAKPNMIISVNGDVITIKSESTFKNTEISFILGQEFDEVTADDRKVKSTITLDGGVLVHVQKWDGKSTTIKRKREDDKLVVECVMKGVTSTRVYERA

As to `O=C(O)Cc1cn(-c2ccccc2-c2nc(-c3ccccc3)c(-c3ccccc3)s2)nn1`, the IC50 in test [1] was 5.59 µM.

With `COc1cc(Br)c(C(C)(C)C)cc1S(=O)(=O)Nc1ccccc1C(=O)O`, the IC50 in test [2] was 1.5 µM. As for `CC(C)OC(=O)C(C(=O)C(F)(F)F)c1cc(NS(=O)(=O)c2ccccc2)ccc1O` (configuration not stated), the concentration for half-maximal inhibition (IC50) in test [3] stood at 3.5 µM. Compound `C=CCn1c(=O)[nH]c(=O)c2[nH]c(-c3ccc(OCCNC(=O)c4ccccc4)cc3)cc21` showed an IC50 in test [1] of 2.23 µM.

Consider `O=C(O)Cc1cn(-c2ccccc2-c2nc(-c3ccc4ccccc4c3)c(-c3ccccc3)s2)nn1`, for which, in test [1], the IC50 amounted to 3.7 µM. In the case of `O=C(O)Cc1cn(-c2ccccc2-c2nc(-c3ccc(Cl)cc3)c(-c3ccccc3)s2)nn1`, the half-inhibitory concentration (IC50) in test [1] is 4.31 µM. `O=C(O)c1cccc(NS(=O)(=O)c2ccc(Br)c3ccccc23)c1` showed an IC50 in test [2] of 5.5 µM.

Broadly, the IC50 is the point on the concentration scale where inhibition reaches its midpoint.
